In patent US7514433B2, “1H-indole-6-yl-piperazin-1-yl-methanone derivatives” (Hoffmann-La Roche Inc., priority 2006, dated 2009) one finds Ki data, which are given here for 3 molecules.

pKi: −log10 of the molar value. Structures can show the parent of a compound that is named as a salt.

As a reminder, the pKi is the Ki on a negative log10 scale, so that one unit is a factor of ten.

T1 sequence (Q9Y5N1 whole entry): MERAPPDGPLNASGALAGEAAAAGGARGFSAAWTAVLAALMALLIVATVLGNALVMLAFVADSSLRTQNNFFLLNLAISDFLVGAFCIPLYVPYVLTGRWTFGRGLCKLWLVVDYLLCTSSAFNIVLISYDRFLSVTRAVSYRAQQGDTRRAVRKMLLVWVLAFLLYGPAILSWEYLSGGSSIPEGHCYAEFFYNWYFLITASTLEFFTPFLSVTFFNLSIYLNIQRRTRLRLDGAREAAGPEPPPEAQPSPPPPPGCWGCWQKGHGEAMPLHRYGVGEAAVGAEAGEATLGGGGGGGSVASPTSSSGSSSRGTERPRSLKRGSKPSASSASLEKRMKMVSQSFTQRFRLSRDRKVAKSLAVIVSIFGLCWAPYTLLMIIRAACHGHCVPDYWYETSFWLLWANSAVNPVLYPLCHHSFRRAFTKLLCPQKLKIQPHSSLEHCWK

The assay addresses T1, histamine 3 receptor (H3R) (Homo sapiens, UniProt Q9Y5N1).
T1 construct: expressed in transfected cells; host or cells: CHO cells (HR3-CHO cell line), membranes
The assay can be described thus: Binding assay with 3H-(R)α-methylhistamine (competition binding, membranes of the human HR3-CHO cell line). The settings on record: competition against 3H(R)α-methylhistamine (1 nM), Ki calculated from IC50 by the Cheng-Prusoff equation. The method, then:
Binding assay with ^3H-(R)α-methylhistamine
Saturation binding experiments were performed using HR3-CHO membranes prepared as described in Takahashi, K, Tokita, S., Kotani, H. (2003) J. Pharmacol. Exp. Therapeutics 307, 213-218.
An appropriate amount of membrane (60 to 80 μg protein/well) was incubated with increasing concentrations of ^3H(R)α-Methylhistamine di-hydrochloride (0.10 to 10 nM). Non specific binding was determined using a 200 fold excess of cold (R)α-Methylhistamine dihydrobromide (500 nM final concentration). The incubation was carried out at room temperature (in deep-well plates shaking for three hours). The final volume in each well was 250 μl. The incubation was followed by rapid filtration on GF/B filters (pre-soaked with 100 μl of 0.5% PEI in Tris 50 mM shaking at 200 rpm for two hours). The filtration was made using a cell-harvester and the filter plates were then washed five times with ice cold washing buffer containing 0.5 M NaCl. After harvesting, the plates were dried at 55° C. for 60 min, then we added scintillation fluid (Microscint 40, 40 microl in each well) and the amount of radioactivity on the filter was determined in Packard top-counter after shaking the plates for two hours at 200 rpm at room temperature.
Binding Buffer: 50 mM Tris-HCl pH 7.4 and 5 mM MgCl2×6H2O pH 7.4.
Washing Buffer: 50 mM Tris-HCl pH 7.4 and 5 mM MgCl2×6H2O and 0.5 M NaCl pH 7.4.
Indirect measurement of affinity of H3R inverse agonists: twelve increasing concentrations (ranging from 10 μM to 0.3 nM) of the selected compounds were always tested in competition binding experiments using membrane of the human HR3-CHO cell line. […]
All compounds were tested at a single concentration in duplicate. […] Ki's were calculated from IC50 based on Cheng-Prusoff equation (Cheng, Y, Prusoff, W H (1973) Biochem Pharmacol 22, 3099-3108): Ki=IC50/[1+D/Kd] wherein D is the concentration of the radioligand and Kd is the binding constant for the radioligand binding to the receptor under the conditions used in the competition experiment.
As for `CC(C)CN1CCC(c2c[nH]c3cc(C(=O)N4CCN(C(C)C)CC4)ccc23)CC1` [Example 2, [3-(1-Isobutyl-piperidin-4-yl)-1H-indol-6-yl]-(4-isopropyl-piperazin-1-yl)-methanone; hydrochloride], the pKi is 7.61.

In the case of `CN1CCCC1c1c[nH]c2cc(C(=O)N3CCN(C4CCCC4)CC3)ccc12` (stereo not drawn) [Example 35, (4-Cyclopentyl-piperazin-1-yl)-[3-(1-methyl-pyrrolidin-2-yl)-1H-indol-6-yl]-methanone], the pKi was 7.48.

Take `CC(C)CN1CC=C(c2cn(-c3ccc(F)cc3F)c3cc(C(=O)N4CCN(C(C)C)CC4)ccc23)CC1` [Example 54, [1-(2,4-Difluoro-phenyl)-3-(1-isobutyl-1,2,3,6-tetrahydro-pyridin-4-yl)-1H-indol-6-yl]-(4-isopropyl-piperazin-1-yl)-methanone]: the pKi was 7.75.
